Laboratory results as given in paper PMC2685978, “Evaluation of Wuchereria bancrofti GST as a Vaccine Candidate for Lymphatic Filariasis” (PLoS Neglected Tropical Diseases, 2009).

Target: T1, rWbGST (Wuchereria bancrofti, UniProt Q86LL8)
T1 construct: about 28 kDa with tag
T1 sequence (Q86LL8 1-208): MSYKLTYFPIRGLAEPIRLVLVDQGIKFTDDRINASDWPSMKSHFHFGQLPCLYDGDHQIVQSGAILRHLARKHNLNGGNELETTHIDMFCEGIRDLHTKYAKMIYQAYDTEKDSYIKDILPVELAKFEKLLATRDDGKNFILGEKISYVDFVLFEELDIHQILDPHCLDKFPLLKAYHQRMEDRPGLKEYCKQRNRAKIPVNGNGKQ
Experiment: spectrophotometric conjugation assay at […] nm
Assay type: biochemical
Details: 1.0 mM CDNB, 1.0 mM GSH, 100 mM phosphate, pH 6.5; only specific activity printed

O=[N+]([O-])c1ccc(Cl)c([N+](=O)[O-])c1 [CDNB, 1-chloro-2,4-dinitrobenzene] was tested, and the “spectrophotometric conjugation assay at 340 nm” value was “GST enzyme activity was determined using CDNB and GSH substrates”.
